In PubChem BioAssay (NCI):
Several values for one entry are separate records, joined by “and”; a condition that tells them apart may be missing. Equal values may be shown once.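 Dose response: 5 concentrations. Exposure: 48 h. Format: 96-well plates. Endpoint: linear interpolation; highest concentration if not reached. Here, GI50 denotes the concentration required for 50% inhibition of growth. TGI: total growth inhibition.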

Tests used:
Assay in all cases: NCI anticancer screen, dose series, 48 h
[1] = test system: ACHN renal
[2] = test system: SK-MEL-2 melanoma
[3] = test system: DLD-1 colon
[4] = test system: OVCAR-4 ovarian
[5] = test system: UACC-62 melanoma
[6] = test system: HT29 colon
[7] = test system: SNB-78 CNS
[8] = test system: SF-295 CNS
[9] = test system: NCI-H460 lung
[10] = test system: HCT-15 colon

Compound | TGI [1] [µM] | TGI [2] | TGI [3] [µM] | TGI [4] [µM] | TGI [5] [µM] | TGI [6] | TGI [7] [µM] | TGI [8] [µM] | TGI [9] [µM] | TGI [10] [µM] | GI50 [1] [µM] | GI50 [2] [µM] | GI50 [4] [µM] | GI50 [5] [µM] | GI50 [6] [µM] | GI50 [8] [µM] | GI50 [9] [µM] | GI50 [10] [µM] | GI50 [3] [nM] | GI50 [7] [nM]
CCc1cccc(C(C)CC)c1NC(=O)C(=O)Cc1nc2ccccc2o1 (stereo not given) | > 50 | > 50 µM | > 50 | > 50 | > 50 | > 50 µM | > 50 | > 50 | > 50 | > 50 |  |  |  |  |  |  |  |  |  | 
COC(=O)/C(=N\NC(N)=O)C(C#N)c1ccccc1 (stereo not given) | > 100 | > 100 µM | > 100 | > 100 | > 100 | > 100 µM | > 100 | > 100 | > 100 | > 100 |  |  |  |  |  |  |  |  |  | 
COc1cc(/C=C2\NC(=O)C3Cc4c(OC)c(C)c(OC)c(OC)c4C2N3C)c(OC)c(C)c1OC (stereo not given) | > 100 |  | > 100 | > 100 | > 100 | > 100 µM | > 100 | > 100 |  |  |  |  |  |  |  |  |  |  |  | 
Brc1ccc(C=NC23CC4CC(CC(C4)C2)C3)cc1 | > 100 | > 100 µM | > 100 | > 100 | > 100 | > 100 µM | > 100 | > 100 | > 100 | > 100 |  |  |  |  |  |  |  |  |  | 
CC1OC(CC(=O)O)Cc2c1c(O)c1c(O)cc(-c3cc(=O)c4c(=O)c5c(c(=O)c=4c3=O)CC(CC(=O)O)OC5C)c(O)c1c2O (stereo not given) | > 81 | 48.2 µM and 62.5 µM | 26.4 | 39.7 | 17.7 | 55.6 µM and 94.7 µM | > 73 | > 100 | > 100 | 16.7 | 43.3 | 27.7 | 35.1 | 48.9 | 26.1 | 77.3 | 35 | 61.6 |  | 
CCCCCCCC(=O)OCC1OC(n2cc(F)c(=O)[nH]c2=O)C(N)C(O)C1O (stereo not given) | > 100 | > 100 µM | > 100 | > 100 | > 100 | > 100 µM | > 100 | > 100 | > 100 | > 100 |  |  |  |  |  |  |  |  |  | 
O=[N+]([O-])c1cc(I)cc(/C=N/NS(=O)(=O)c2ccc(Cl)cc2)c1O | 51.4 | 42.7 µM | 59.4 | 85.6 | 57.6 | 48.6 µM | 70.9 | 60.6 | 37.4 | 38.7 |  |  |  |  |  |  |  |  |  | 
O=C(CC1(O)C(=O)Nc2ccc([N+](=O)[O-])cc21)c1ccncc1 (stereo not given) | > 100 | > 100 µM | > 100 | 40.9 | > 100 | > 100 µM | > 100 | > 100 | > 100 | > 100 |  |  |  |  |  |  |  |  |  | 
N#CC(C(=O)CCC(=O)Nc1cccc(C(F)(F)F)c1)c1ccccc1 (stereo not given) | > 100 | > 100 µM | > 100 | > 100 | > 100 | > 100 µM | > 100 | > 100 | > 100 | > 100 |  |  |  |  |  |  |  |  |  | 
CCC[CH2][Sn]1([CH2]CCC)[O]CC[S]1 | 2.23 | 1.01 µM | 1.73 | 3 | 1.56 | 2.81 µM | 2.26 | 2.76 | 3.72 | 2.25 | 1.03 | 0.298 | 1.57 | 0.392 | 1.27 | 1.42 | 1.77 | 0.799 | 470 | 494
